{"source": "patent US20230115907A1", "about": "“HETEROCYCLIC COMPOUND AND PHARMACEUTICAL COMPOSITION, PREPARATION METHOD, INTERMEDIATE AND USE THEREOF” (EVOPOINT BIOSCIENCES CO., LTD., priority 2019, published 2023)", "key": {"HCC70 cells": {"test_system": "HCC70 cells", "test": "Inhibition of cell proliferation, CellTiter-Glo, HCC70", "assay_type": "cell-based", "conditions": "Homo sapiens, HCC70, 72 h", "method": "(§1) The compounds were each prepared with 100% DMSO into 10 mM mother liquor.\n(§2) HCC70 cells and OVCAR3 cells were digested and counted. Cells were diluted to an appropriate concentration according to cell density. 100 μL of cells were added to each well of a 96-well plate. Medium wells served as blank control (Min). The cells were incubated overnight in an incubator at 37° C./5% CO2.\n(§3) A 200-fold stock solution of a compound was prepared with DMSO, and the compound was diluted with growth medium to a 3-fold stock solution, i.e., […] of each of 200-fold stock solutions of compound at different concentrations was added to 197 μL of medium. 50 μL of diluted compound was added to each well and the mixture was incubated at 37° C./5% CO2 for 72 h.\n(§4) The 96-well plate was equilibrated to room temperature before detection. 40 μL of CellTiter-Glo solution was added to each well. The mixture was mixed for 2 min using a horizontal shaker to induce cell lysis. The mixture was incubated at room temperature for 60 min to stabilize […] signals. Fluorescence values were read on ENVISION.\n(§5) (1) Data was analyzed by GraphPad Prism 5\n(§6) (2) % inhibition rate=(maximum signal−compound signal)/(maximum signal−minimum signal)×100\n(§7) (3) Maximum signal: signal of DMSO well\n(§8) (4) Minimum signal: signal of medium well\n(§9) The effect of SZ-015200, SZ-015256 and SZ-015268 on cell proliferation after incubation with HCC70, OVCAR-3, HCT116 and HCC1806 cells for 3 days was detected according to the method described in Efficacy Example 2, and the results are shown in Table 3."}, "OVCAR3 cells": {"test_system": "OVCAR3 cells", "test": "Inhibition of cell proliferation, CellTiter-Glo, OVCAR3", "assay_type": "cell-based", "conditions": "Homo sapiens, OVCAR-3, 72 h", "method": "as §1, §2, §3, §4, §5, §6, §7, §8, §9"}, "HCT116 cells": {"test_system": "HCT116 cells", "test": "Inhibition of cell proliferation, CellTiter-Glo, HCT116", "assay_type": "cell-based", "conditions": "Homo sapiens, HCT-116, 72 h; Efficacy Example 3 (Table 3), incubation for 3 days", "method": "as §2, §3, §4, §6, §9"}, "HCC1806 cells": {"test_system": "HCC1806 cells", "test": "Inhibition of cell proliferation, CellTiter-Glo, HCC1806", "assay_type": "cell-based", "conditions": "Homo sapiens, HCC1806, 72 h; Efficacy Example 3 (Table 3), incubation for 3 days", "method": "as §2, §3, §4, §6, §9"}, "[1]": {"test": "In vivo pharmacokinetics after intragastric administration in mice", "conditions": "single intragastric administration, 20 mg/kg", "method": "Male 1CR mice were divided into different groups with 3 mice in each group, and single intragastric administration was conducted for each group. The compounds were each formulated with 10% DMSO/10% Solutol/80% ([…]) to reach an appropriate concentration and then administered intragastrically at 20 mg/kg. Blood was taken 5 min, 15 min, 30 min, 1 h, 2 h, 4 h, 6 h, 8 h and 24 h after administration, and then subjected to EDTA-K2 anticoagulation. The concentration of the compound in the plasma was quantitatively detected by an LC-MS/MS method."}, "[2]": {"test": "In vivo pharmacokinetics after intragastric administration in rats", "set-up": "species or system SD rats", "conditions": "single intragastric administration, 40 mg/kg", "method": "Male SD rats were divided into different groups with 3 rats in each group, and single intragastric administration was conducted for each group. The compounds were each formulated with 10% DMSO/10% Solutol/80% (20% Captisol) to reach an appropriate concentration and then administered intragastrically at 40 mg/kg. Blood was taken 5 min, 15 min, 30 min, 1 h, 2 h, 4 h, 6 h, 8 h and 24 h after administration, and then subjected to EDTA-K2 anticoagulation. The concentration of the compound in the plasma was quantitatively detected by an LC-MS/MS method."}, "[3]": {"test_system": "human colon cancer cells HCT116 xenograft tumor", "test": "In vivo efficacy in subcutaneous xenograft tumor model of human colon cancer cells HCT116", "set-up": "species or system BALB/c nude mice", "conditions": "for Tumor inhibition rate (TGI): day 21; for % proliferation percentage of tumor volume (Day 21 after grouping) / Tumor volume (day 21 after grouping): mean value ± standard error", "method": "HCT116 tumor cells used in this test were purchased from ATCC. HCT116 tumor cells were cultured in McCoy's 5a medium containing inactivated 10% fetal bovine serum, 100 U/mL penicillin, 100 μg/mL streptomycin and 2 mM glutamine in an incubator at 37° C./5% CO2. The cells were divided and transferred to other bottles every 3 to 4 days for passaging when the culture bottle was full of cells. The tumor cells in the logarithmic growth phase were used for tumor seeding in vivo.\nHCT116 tumor cells resuspended in serum-free McCoy's 5a culture solution were seeded subcutaneously into the right costal part of male BALB/c nude mice at 5×10^6/0.1 mL. When the tumor grew to 101 mm^3, animals with uniform tumor volume were selected and divided into groups with 8 animals in each group for administration, and the specific administration regimens are shown in Table 6 below.\nTumor volume: the long and short diameters of the tumor were measured twice every week using a vernier caliper for calculating the tumor volume, and the calculation formula was:\nvolume=0.5×long diameter×short diameter^2.\n[…]=mean value of relative tumor volume of treatment group/mean value of relative tumor volume of control group×100\nTumor growth inhibition rate(TGI,%)=(1−T/C)×100\nStatistical analysis between groups was performed for tumor volume using One-Way ANOVA test, and a significant difference was considered to be present when p<0.05."}, "CDK7/Cyclin H/MAT1": {"target": "CDK7/Cyclin H/MAT1 (Homo sapiens, UniProt P50613)", "sequence (P50613 whole entry)": "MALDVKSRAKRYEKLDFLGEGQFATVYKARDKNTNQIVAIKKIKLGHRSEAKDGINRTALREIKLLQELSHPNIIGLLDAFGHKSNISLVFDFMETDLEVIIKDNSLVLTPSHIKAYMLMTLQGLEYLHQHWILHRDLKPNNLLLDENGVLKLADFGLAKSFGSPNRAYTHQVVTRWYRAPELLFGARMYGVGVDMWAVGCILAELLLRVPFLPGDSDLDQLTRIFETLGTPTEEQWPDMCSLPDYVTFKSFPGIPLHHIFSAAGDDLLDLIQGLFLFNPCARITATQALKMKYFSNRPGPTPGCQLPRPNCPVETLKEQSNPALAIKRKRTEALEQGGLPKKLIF", "sequence (P51946 whole entry partner)": "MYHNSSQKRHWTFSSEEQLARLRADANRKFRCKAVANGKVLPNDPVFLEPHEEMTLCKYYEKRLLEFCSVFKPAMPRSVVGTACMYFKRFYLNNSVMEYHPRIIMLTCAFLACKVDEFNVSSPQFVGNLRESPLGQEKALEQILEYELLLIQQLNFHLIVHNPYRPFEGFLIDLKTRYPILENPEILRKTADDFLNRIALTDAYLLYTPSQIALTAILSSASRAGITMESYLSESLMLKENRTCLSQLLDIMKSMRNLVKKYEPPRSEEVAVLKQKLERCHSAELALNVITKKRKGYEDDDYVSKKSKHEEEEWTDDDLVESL", "sequence (P51948 whole entry partner)": "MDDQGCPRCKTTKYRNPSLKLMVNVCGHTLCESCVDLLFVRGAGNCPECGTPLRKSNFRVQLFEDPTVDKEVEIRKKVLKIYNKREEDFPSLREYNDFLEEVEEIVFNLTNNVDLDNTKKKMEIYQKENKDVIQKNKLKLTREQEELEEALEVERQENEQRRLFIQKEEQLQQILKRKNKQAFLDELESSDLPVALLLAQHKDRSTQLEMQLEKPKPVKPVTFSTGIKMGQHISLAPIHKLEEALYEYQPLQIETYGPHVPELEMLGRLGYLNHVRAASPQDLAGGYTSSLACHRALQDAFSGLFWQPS", "test": "CDK7 inhibition, mobility shift assay", "protocol": "The initial concentration of compound was 10 μM, and the compound was 3-fold diluted to obtain 10 concentrations. Duplicate wells were set for the assay, and the pre-incubation time of compound and enzyme was 60 min.\nCompound powders were dissolved in 100% DMSO to prepare 10 mM stock solution, which was 3-fold diluted with DMSO, with 0.5 mM as the initial concentration, to obtain 10 concentration gradients of compound solutions.\n(1) Compound at each concentration was 8.3-fold diluted with ddH2O, and then 2 μL of each compound solution and positive control were added to a 384-well plate.\n(2) 5 μL of a kinase working solution (CDK7/Cyclin H/MAT1) was added to the compound wells and positive control wells to make the final concentration of CDK7 be 3 nM.\n(3) The plate was pre-incubated at room temperature for 60 min.\n(5) The 384-well plate was incubated at 27° C. for 36 min.\n(6) 4 μL of 80 mM EDTA was added to terminate the reaction.\n(7) The conversion rates were read using a Caliper EZ Reader II."}, "[4]": {"conditions": "Efficacy Example 2 (Table 2), 72 h incubation"}, "[5]": {"conditions": "Efficacy Example 3 (Table 3), incubation for 3 days"}}, "note": "pIC50: −log10 of the molar value.", "data": [{"smiles": "Cc1nc(NC2CCN(C(=O)O[C@H]3CCN(C(=O)/C=C/CN(C)C)C3)CC2)n2ncc(C(C)C)c2n1", "note": "[SZ-015256, (S,E)-1-(4-(dimethylamino)but-2-enoyl)pyrrolidin-3-yl 4-((8-isopropyl-2-methylpyrazolo[1,5-a][1,3,5]triazin-4-yl)amino)piperidine-1-carboxylate]", "values": [{"measurement": "pIC50", "setting": "HCC70 cells; [4]", "result": 6.76}, {"measurement": "pIC50", "setting": "HCC70 cells; [5]", "result": 7.29}, {"measurement": "pIC50", "setting": "OVCAR3 cells; [4]", "result": 7.12}, {"measurement": "pIC50", "setting": "OVCAR3 cells; [5]", "result": 7.34}, {"measurement": "pIC50", "setting": "HCT116 cells", "result": 7.60}, {"measurement": "pIC50", "setting": "HCC1806 cells", "result": 7.35}, {"measurement": "AUC(0-inf)", "setting": "[1]; male, ICR, mouse, po, plasma", "result": 6380, "unit": "ng·h/mL"}, {"measurement": "AUC(0-t)", "setting": "[1]; male, ICR, mouse, po, plasma", "result": 6260, "unit": "ng·h/mL"}, {"measurement": "Cmax", "setting": "[1]; male, ICR, mouse, po, plasma", "result": 3380, "unit": "ng/mL"}, {"measurement": "Tmax", "setting": "[1]; male, ICR, mouse, po, plasma", "result": 0.5, "unit": "h"}, {"measurement": "half-life", "setting": "[1]; male, ICR, mouse, po, plasma", "result": 1.48, "unit": "h"}, {"measurement": "Cmax and AUC compared with the control compound SZ-015200", "setting": "[1]; in words", "result": "significantly higher"}, {"measurement": "AUC(0-inf)", "setting": "[2]; male, SD, rat, po, plasma", "result": 7880, "unit": "ng·h/mL"}, {"measurement": "AUC(0-t)", "setting": "[2]; male, SD, rat, po, plasma", "result": 7830, "unit": "ng·h/mL"}, {"measurement": "Cmax", "setting": "[2]; male, SD, rat, po, plasma", "result": 783, "unit": "ng/mL"}, {"measurement": "Tmax", "setting": "[2]; male, SD, rat, po, plasma", "result": 4.67, "unit": "h"}, {"measurement": "half-life", "setting": "[2]; male, SD, rat, po, plasma", "result": 2.99, "unit": "h"}, {"measurement": "Cmax and AUC compared with the control compound SZ-015200", "setting": "[2]; in words", "result": "The results show that compared with the control compound SZ-015200, the Cmax and the AUC of SZ-015256 and SZ-015268 in rats after single intragastric administration were significantly higher, which indicates that SZ-015256 and SZ-015268 have better pharmacokinetic properties."}, {"measurement": "Tumor inhibition rate (TGI)", "setting": "[3]; 15 mg/kg p.o. QD × 21 days", "result": 61.6, "unit": "%"}, {"measurement": "% proliferation percentage of tumor volume (Day 21 after grouping)", "setting": "[3]; 15 mg/kg p.o. QD × 21 days", "result": "407 ± 40", "unit": "%"}, {"measurement": "Tumor volume (day 21 after grouping)", "setting": "[3]; 15 mg/kg p.o. QD × 21 days", "result": "402 ± 42", "unit": "mm^3"}, {"measurement": "Tumor inhibition rate (TGI)", "setting": "[3]; 25 mg/kg p.o. QD × 21 days", "result": 81.9, "unit": "%"}, {"measurement": "% proliferation percentage of tumor volume (Day 21 after grouping)", "setting": "[3]; 25 mg/kg p.o. QD × 21 days", "result": "192 ± 38", "unit": "%"}, {"measurement": "Tumor volume (day 21 after grouping)", "setting": "[3]; 25 mg/kg p.o. QD × 21 days", "result": "201 ± 43", "unit": "mm^3"}, {"measurement": "Effect on inhibiting tumor proliferation compared with the control compound SZ-015200 (in words)", "setting": "[3]; HCT116 xenograft, p.o. QD × 21 days", "result": "stronger effect on inhibiting tumor proliferation"}, {"measurement": "Anti-tumor effect (in words)", "setting": "[3]; SZ-015256: 25 mg/kg and 15 mg/kg treatment groups, SZ-015268 and SZ-015200: 25 mg/kg treatment group", "result": "significant anti-tumor effect"}, {"measurement": "pIC50", "setting": "CDK7/Cyclin H/MAT1", "result": 7.27}]}]}
